# Source: ChEMBL document CHEMBL5291721, “A preclinical secondary pharmacology resource illuminates target-adverse drug reaction associations of marketed drugs” (Nat Commun, 2023)
# Key:
# [1] = biological target: Beta-1 adrenergic receptor (Homo sapiens, UniProt P08588); format: functional
# [2] = biological target: T1, Progesterone receptor (Homo sapiens, UniProt P06401); format: functional
# T1 sequence (P06401 whole entry): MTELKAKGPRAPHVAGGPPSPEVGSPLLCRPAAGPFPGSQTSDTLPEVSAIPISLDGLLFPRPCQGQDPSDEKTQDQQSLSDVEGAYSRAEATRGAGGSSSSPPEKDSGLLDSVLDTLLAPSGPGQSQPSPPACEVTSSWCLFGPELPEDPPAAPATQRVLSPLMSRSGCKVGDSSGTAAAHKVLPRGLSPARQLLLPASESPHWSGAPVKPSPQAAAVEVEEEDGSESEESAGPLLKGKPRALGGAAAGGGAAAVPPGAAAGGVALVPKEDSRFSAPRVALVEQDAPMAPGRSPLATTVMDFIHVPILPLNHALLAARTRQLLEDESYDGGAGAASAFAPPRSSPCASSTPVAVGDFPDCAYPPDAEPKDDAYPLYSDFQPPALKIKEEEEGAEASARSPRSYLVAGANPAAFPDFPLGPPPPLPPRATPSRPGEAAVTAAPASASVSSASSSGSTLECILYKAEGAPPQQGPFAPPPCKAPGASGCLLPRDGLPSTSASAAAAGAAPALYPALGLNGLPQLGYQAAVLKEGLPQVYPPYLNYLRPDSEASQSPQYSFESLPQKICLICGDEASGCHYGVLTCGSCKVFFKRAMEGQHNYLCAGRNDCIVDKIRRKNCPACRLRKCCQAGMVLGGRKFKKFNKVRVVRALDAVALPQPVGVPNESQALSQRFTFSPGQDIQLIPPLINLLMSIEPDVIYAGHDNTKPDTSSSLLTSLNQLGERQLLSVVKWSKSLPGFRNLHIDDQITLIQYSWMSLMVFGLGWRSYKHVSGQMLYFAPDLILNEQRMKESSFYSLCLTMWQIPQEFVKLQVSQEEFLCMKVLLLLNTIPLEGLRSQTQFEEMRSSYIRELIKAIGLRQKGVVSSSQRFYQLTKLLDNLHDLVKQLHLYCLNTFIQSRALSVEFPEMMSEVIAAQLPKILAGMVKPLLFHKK
# [3] = biological target: T2, Prostaglandin G/H synthase 1 (Rattus norvegicus, UniProt Q63921); format: functional
# T2 sequence (Q63921 whole entry): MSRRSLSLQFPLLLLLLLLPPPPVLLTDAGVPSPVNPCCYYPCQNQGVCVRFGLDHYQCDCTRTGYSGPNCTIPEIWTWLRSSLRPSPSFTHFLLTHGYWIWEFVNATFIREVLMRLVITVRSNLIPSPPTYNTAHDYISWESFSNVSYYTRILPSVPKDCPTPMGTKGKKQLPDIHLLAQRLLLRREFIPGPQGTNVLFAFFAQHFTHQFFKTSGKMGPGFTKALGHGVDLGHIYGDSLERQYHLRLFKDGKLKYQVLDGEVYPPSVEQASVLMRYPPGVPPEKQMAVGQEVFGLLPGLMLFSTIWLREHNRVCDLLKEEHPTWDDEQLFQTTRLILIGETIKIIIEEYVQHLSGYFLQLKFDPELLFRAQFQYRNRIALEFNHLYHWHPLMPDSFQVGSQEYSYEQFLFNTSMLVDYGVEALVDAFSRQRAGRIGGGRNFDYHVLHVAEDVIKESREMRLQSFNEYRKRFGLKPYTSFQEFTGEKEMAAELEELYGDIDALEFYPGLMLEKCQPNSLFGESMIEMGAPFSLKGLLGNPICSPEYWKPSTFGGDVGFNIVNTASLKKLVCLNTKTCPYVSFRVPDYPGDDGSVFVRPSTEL
# [4] = biological target: Sodium-dependent noradrenaline transporter (Homo sapiens, UniProt P23975)
# [5] = biological target: T3, Amine oxidase [flavin-containing] A (Homo sapiens, UniProt P21397); format: functional
# T3 sequence (P21397 whole entry): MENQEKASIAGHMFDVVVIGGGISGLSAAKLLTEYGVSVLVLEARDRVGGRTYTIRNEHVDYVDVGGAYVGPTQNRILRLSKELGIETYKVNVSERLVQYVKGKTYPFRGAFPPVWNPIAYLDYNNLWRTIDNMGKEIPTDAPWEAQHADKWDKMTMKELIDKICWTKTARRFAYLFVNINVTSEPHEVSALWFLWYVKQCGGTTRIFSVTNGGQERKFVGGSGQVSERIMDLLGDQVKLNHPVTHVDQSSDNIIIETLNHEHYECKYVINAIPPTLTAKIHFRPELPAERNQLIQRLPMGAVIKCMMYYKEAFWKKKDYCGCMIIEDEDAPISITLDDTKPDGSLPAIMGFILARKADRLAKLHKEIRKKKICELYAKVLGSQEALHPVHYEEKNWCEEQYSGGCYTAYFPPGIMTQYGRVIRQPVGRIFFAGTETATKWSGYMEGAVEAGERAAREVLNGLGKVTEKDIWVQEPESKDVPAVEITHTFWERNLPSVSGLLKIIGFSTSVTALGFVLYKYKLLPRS
# [6] = biological target: D(3) dopamine receptor (Homo sapiens, UniProt P35462)
# [7] = biological target: T4, Alpha-2B adrenergic receptor (Homo sapiens, UniProt P18089)
# T4 sequence (P18089 whole entry): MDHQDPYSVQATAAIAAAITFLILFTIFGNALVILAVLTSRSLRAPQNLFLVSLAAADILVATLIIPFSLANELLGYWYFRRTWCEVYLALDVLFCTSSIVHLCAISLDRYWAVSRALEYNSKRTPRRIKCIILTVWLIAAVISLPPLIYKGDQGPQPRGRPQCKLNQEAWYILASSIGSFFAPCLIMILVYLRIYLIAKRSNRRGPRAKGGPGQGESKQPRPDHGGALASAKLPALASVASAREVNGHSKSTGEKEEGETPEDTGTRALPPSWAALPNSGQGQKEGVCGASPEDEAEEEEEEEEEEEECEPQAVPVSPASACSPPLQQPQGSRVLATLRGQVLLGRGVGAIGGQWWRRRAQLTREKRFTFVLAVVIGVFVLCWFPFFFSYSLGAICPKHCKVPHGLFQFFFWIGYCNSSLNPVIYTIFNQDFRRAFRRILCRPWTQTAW
# [8] = biological target: Histamine H1 receptor (Homo sapiens, UniProt P35367)
# Note: assay procedure not described here.
# Beta-1 adrenergic receptor, sequence (P08588 whole entry): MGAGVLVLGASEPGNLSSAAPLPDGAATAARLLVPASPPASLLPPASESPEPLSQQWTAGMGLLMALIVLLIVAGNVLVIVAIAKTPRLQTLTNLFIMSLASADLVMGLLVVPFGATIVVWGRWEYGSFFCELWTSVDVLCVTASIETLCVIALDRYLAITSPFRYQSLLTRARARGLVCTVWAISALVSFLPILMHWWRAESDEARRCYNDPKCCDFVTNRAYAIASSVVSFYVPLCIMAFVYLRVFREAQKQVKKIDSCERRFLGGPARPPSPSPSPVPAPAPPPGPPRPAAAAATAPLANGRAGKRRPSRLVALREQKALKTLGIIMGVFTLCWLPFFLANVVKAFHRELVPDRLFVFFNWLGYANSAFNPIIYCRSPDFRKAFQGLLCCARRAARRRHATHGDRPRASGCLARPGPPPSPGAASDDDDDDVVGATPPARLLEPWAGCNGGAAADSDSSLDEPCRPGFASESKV
# Histamine H1 receptor, sequence (P35367 whole entry): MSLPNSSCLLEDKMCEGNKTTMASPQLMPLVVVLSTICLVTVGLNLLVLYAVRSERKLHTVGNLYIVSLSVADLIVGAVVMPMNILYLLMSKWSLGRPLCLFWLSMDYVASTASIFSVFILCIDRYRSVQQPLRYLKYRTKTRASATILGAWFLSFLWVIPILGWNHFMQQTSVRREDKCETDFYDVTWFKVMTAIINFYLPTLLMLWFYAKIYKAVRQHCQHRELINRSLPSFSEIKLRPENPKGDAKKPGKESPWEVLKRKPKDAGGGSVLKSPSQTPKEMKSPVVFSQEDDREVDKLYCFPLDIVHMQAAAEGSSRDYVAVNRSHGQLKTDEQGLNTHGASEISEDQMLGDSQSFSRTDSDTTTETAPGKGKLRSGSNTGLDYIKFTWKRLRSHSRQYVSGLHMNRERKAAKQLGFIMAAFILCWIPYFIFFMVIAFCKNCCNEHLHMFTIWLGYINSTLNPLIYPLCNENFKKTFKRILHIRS
# D(3) dopamine receptor, sequence (P35462 whole entry): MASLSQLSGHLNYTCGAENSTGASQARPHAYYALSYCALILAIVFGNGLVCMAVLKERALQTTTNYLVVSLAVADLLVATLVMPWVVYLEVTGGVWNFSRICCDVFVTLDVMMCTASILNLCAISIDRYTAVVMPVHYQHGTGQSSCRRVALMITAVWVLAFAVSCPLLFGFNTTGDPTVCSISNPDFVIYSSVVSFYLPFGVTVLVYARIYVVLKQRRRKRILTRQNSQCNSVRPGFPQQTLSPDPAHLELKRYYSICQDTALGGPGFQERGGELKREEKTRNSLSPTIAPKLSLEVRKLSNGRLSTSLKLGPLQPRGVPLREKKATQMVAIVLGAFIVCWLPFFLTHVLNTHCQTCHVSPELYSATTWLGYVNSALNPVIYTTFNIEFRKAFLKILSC
# Sodium-dependent noradrenaline transporter, sequence (P23975 whole entry): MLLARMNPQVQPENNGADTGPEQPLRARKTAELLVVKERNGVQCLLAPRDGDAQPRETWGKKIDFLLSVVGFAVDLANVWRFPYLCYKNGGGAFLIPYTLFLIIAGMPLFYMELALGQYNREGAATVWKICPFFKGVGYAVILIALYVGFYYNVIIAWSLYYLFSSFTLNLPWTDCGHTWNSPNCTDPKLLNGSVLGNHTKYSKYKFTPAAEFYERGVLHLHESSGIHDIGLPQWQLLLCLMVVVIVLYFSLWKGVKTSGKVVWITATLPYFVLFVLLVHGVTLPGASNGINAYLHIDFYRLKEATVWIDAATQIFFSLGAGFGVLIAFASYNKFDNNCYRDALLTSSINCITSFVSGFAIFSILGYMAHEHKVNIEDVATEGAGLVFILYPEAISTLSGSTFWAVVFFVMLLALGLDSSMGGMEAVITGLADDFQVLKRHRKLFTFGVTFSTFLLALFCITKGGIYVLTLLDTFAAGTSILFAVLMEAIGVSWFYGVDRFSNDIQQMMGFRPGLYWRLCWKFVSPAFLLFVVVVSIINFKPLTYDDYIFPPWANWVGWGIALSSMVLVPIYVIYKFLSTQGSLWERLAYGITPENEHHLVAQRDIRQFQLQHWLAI
SMILES,AC50 [1] [µM],AC50 [2] [µM],AC50 [3] [µM],AC50 [4] [µM],AC50 [5] [µM],AC50 [6] [µM],AC50 [7] [µM],AC50 [8] [µM]
CCN(CC)CCNC(=O)c1cc(S(C)(=O)=O)ccc1OC [TIAPRIDE],> 30,> 30,> 30,> 30,> 30,0.36,–,–
CC(=O)O[C@H](CC(=O)[O-])C[N+](C)(C)C [ACETYLCARNITINE],> 30,> 30,> 10,> 30,–,> 30,> 30,5.2
CCCCCCCCCCCCCCCCCCCCCC(=O)Nc1ccn([C@@H]2O[C@H](CO)[C@@H](O)[C@@H]2O)c(=O)n1 [ENOCITABINE],> 30,> 30,> 30,> 30,> 30,> 30,> 30,> 30
OCc1cc(C(O)CNCCCCCCOCCCCc2ccccc2)ccc1O (stereo not drawn) [SALMETEROL],–,> 30,> 30,4.3,> 10,8.9,13,> 10
O=C(O)c1ccccc1Nc1cc(Cl)ccc1C(=O)O [LOBENZARIT],> 30,> 30,–,> 30,–,> 30,> 30,> 30
CN(C(=O)c1c(O)c2ccccc2n(C)c1=O)c1ccccc1 [ROQUINIMEX],> 30,29,> 30,> 30,> 30,–,–,> 30
O=C1CN=C(c2ccccc2)c2cc([N+](=O)[O-])ccc2N1 [NITRAZEPAM],> 10,> 10,> 10,> 10,> 10,> 30,–,–
Oc1ccc2c(c1)[C@@]13CCCC[C@@]1(O)[C@@H](C2)N(CC1CCC1)CC3 [BUTORPHANOL],> 30,> 30,> 30,> 30,> 30,> 30,> 30,> 30
CCC(COC(=O)c1cc(OC)c(OC)c(OC)c1)(c1ccccc1)N(C)C (stereo not drawn) [TRIMEBUTINE],> 30,> 30,> 30,> 30,> 30,> 30,17,> 30
COc1cc2ncnc(Nc3ccc(F)c(Cl)c3)c2cc1NC(=O)/C=C/CN1CCCCC1 [DACOMITINIB ANHYDROUS],> 30,> 10,> 30,14,> 30,–,–,> 30
C=C1/C(=C\C=C2/CCC[C@]3(C)[C@@H]([C@H](C)/C=C/[C@@H](O)C4CC4)CC[C@@H]23)C[C@@H](O)C[C@@H]1O [CALCIPOTRIENE],> 30,20,2.2,20,> 30,> 30,> 30,> 30
O=C(O)CCNC(=O)c1ccccc1 [BETAMIPRON],> 30,> 30,> 10,> 30,> 30,> 30,–,–
COc1ccc(-c2noc(CC(=O)O)c2-c2ccc(OC)cc2)cc1 [MOFEZOLAC],> 30,> 30,0.037,> 30,–,> 30,> 30,> 30
NC(=O)CN1CCCC1=O,> 30,> 30,> 30,> 30,> 30,> 30,–,–
CCN1CCCC1CNC(=O)c1cc(S(=O)(=O)CC)c(N)cc1OC (stereo not drawn) [AMISULPRIDE],> 30,> 30,29,> 30,> 30,–,1.5,30
NC1CCN(c2nc3c(cc2F)c(=O)c(C(=O)O)cn3-c2ccc(F)cc2F)C1 (stereo not drawn) [TOSUFLOXACIN],> 30,> 30,> 10,> 30,> 30,> 30,–,–
